Values quoted from earlier work as cited in US9358223B2, “Formulation for preventing or reducing bleeding at a surgical site” (WARSAW ORTHOPEDIC, INC., priority 2009, dated 2016).

Tested on: blood pressure
Conditions: perioperative period, patients undergoing rhytidectomy

Clc1cccc(Cl)c1N=C1NCCN1 [Clonidine, 2,6-dichloro-N-2-imidazolidinyldenebenzenamine]
regulation of blood pressure: effectively regulate blood pressure
